# From ChEMBL document CHEMBL1201862, “PubChem BioAssay data set” (2004)
#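 A five-concentration, 48-hour dose response in 96-well plates underlies each endpoint, interpolated linearly between surrounding concentrations. GI50 is the concentration that inhibits growth by half.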 Activity calls are given as the source filed them. Rule as the data show it: active = GI50 up to about 1.1 µM and inactive = higher.
# Columns and labels:
# Assay in all cases: NCI-60 cell line screen, 48 h
# RPMI-8226 = tested on: RPMI-8226
# UACC-62 = tested on: UACC-62
# HCT-116 = tested on: HCT-116
# MDA-MB-231 = tested on: MDA-MB-231
# SN12C = tested on: SN12C
# EKVX = tested on: EKVX
# HT-29 = tested on: HT-29
# MDA-MB-435 = tested on: MDA-MB-435
# NCI-H460 = tested on: NCI-H460
# DU-145 = tested on: DU-145
# A498 = tested on: A498
# IGROV-1 = tested on: IGROV-1
# 786-0 = tested on: 786-0
# LOX IMVI = tested on: LOX IMVI
# CCRF-CEM = tested on: CCRF-CEM
# HCT-15 = tested on: HCT-15
# KM12 = tested on: KM12
# OVCAR-3 = tested on: OVCAR-3
# MOLT-4 = tested on: MOLT-4
# Hs-578T = tested on: Hs-578T
# SR = tested on: SR
# OVCAR-5 = tested on: OVCAR-5
# ACHN = tested on: ACHN
# MCF7 = tested on: MCF7
# HOP-62 = tested on: HOP-62
# MDA-N = tested on: MDA-N
# CAKI-1 = tested on: CAKI-1
# NCI-H226 = tested on: NCI-H226
# Malme-3M = tested on: Malme-3M
# OVCAR-8 = tested on: OVCAR-8
# U-251 = tested on: U-251
# K562 = tested on: K562
# SF-539 = tested on: SF-539
# UO-31 = tested on: UO-31
# SF-268 = tested on: SF-268
# COLO 205 = tested on: COLO 205
# SK-OV-3 = tested on: SK-OV-3
# PC-3 = tested on: PC-3
# OVCAR-4 = tested on: OVCAR-4
# SK-MEL-28 = tested on: SK-MEL-28
# A549 = tested on: A549
# SF-295 = tested on: SF-295
# SK-MEL-5 = tested on: SK-MEL-5
# SNB-75 = tested on: SNB-75
# RXF 393 = tested on: RXF 393
# HL-60 = tested on: HL-60
# TK-10 = tested on: TK-10
# NCI-H522 = tested on: NCI-H522
# HCC 2998 = tested on: HCC 2998
# NCI-H23 = tested on: NCI-H23
# UACC-257 = tested on: UACC-257
# BT-549 = tested on: BT-549
# T47D = tested on: T47D
# SNB-19 = tested on: SNB-19
# HOP-92 = tested on: HOP-92
# SK-MEL-2 = tested on: SK-MEL-2
# NCI/ADR-RES = tested on: NCI/ADR-RES
# SW-620 = tested on: SW-620
# M14 = tested on: M14
structure (smiles),measurement,setting,value
O=P1(Cc2ccccc2)c2ccccc2-c2ccccc21,GI50,RPMI-8226,650 nM (active)
same,GI50,UACC-62,1960 nM (inactive)
same,GI50,HCT-116,2860 nM (inactive)
same,GI50,MDA-MB-231,20700 nM (inactive)
same,GI50,SN12C,14200 nM (inactive)
same,GI50,EKVX,20400 nM (inactive)
same,GI50,HT-29,2370 nM (inactive)
same,GI50,MDA-MB-435,764 nM (active)
same,GI50,NCI-H460,4040 nM (inactive)
same,GI50,DU-145,7380 nM (inactive)
same,GI50,A498,7850 nM (inactive)
same,GI50,IGROV-1,2330 nM (inactive)
same,GI50,786-0,7940 nM (inactive)
same,GI50,LOX IMVI,4740 nM (inactive)
same,GI50,CCRF-CEM,6040 nM (inactive)
same,GI50,HCT-15,37200 nM
same,GI50,KM12,1080 nM (active)
same,GI50,OVCAR-3,1060 nM (active)
same,GI50,MOLT-4,7290 nM (inactive)
same,GI50,Hs-578T,7050 nM (inactive)
same,GI50,SR,3890 nM (inactive)
same,GI50,OVCAR-5,12100 nM (inactive)
same,GI50,ACHN,11200 nM (inactive)
same,GI50,MCF7,3080 nM (inactive)
same,GI50,HOP-62,6470 nM (inactive)
same,GI50,MDA-N,1220 nM (inactive)
same,GI50,CAKI-1,21700 nM (inactive)
same,GI50,NCI-H226,5770 nM (inactive)
same,GI50,Malme-3M,2150 nM (inactive)
same,GI50,OVCAR-8,4400 nM (inactive)
same,GI50,U-251,3880 nM (inactive)
same,GI50,K562,1410 nM (inactive)
same,GI50,SF-539,6210 nM (inactive)
same,GI50,UO-31,20600 nM (inactive)
same,GI50,SF-268,9120 nM (inactive)
same,GI50,COLO 205,2630 nM (inactive)
same,GI50,SK-OV-3,15700 nM (inactive)
same,GI50,PC-3,2820 nM (inactive)
same,GI50,OVCAR-4,11000 nM (inactive)
same,GI50,SK-MEL-28,4130 nM (inactive)
same,GI50,A549,8810 nM (inactive)
same,GI50,SF-295,5980 nM (inactive)
same,GI50,SK-MEL-5,1460 nM (inactive)
same,GI50,SNB-75,4750 nM (inactive)
same,GI50,RXF 393,9420 nM (inactive)
same,GI50,HL-60,1040 nM (active)
same,GI50,TK-10,5000 nM (inactive)
same,GI50,NCI-H522,1870 nM (inactive)
same,GI50,HCC 2998,1510 nM (inactive)
same,GI50,NCI-H23,3860 nM (inactive)
same,GI50,UACC-257,1860 nM (inactive)
same,GI50,BT-549,2900 nM (inactive)
same,GI50,T47D,65.8 nM (active)
same,GI50,SNB-19,3690 nM (inactive)
same,GI50,HOP-92,376 nM (active)
same,GI50,SK-MEL-2,2180 nM (inactive)
same,GI50,NCI/ADR-RES,> 100000 nM (inactive)
same,GI50,SW-620,3610 nM (inactive)
same,GI50,M14,3670 nM (inactive)
CCCC(=O)Nc1cc(/C=C/C(=O)N2CC(CCl)c3ccc(N)cc32)n(C)c1 (stereo not drawn),GI50,RPMI-8226,177 nM (active)
same,GI50,UACC-62,92 nM (active)
same,GI50,HCT-116,129 nM (active)
same,GI50,MDA-MB-231,275 nM (active)
same,GI50,SN12C,317 nM (active)
same,GI50,EKVX,368 nM (active)
same,GI50,HT-29,284 nM (active)
same,GI50,MDA-MB-435,256 nM (active)
same,GI50,NCI-H460,99.8 nM (active)
same,GI50,DU-145,36.1 nM (active)
same,GI50,A498,22.3 nM (active)
same,GI50,IGROV-1,229 nM (active)
same,GI50,786-0,107 nM (active)
same,GI50,LOX IMVI,148 nM (active)
same,GI50,CCRF-CEM,195 nM (active)
same,GI50,HCT-15,304 nM
same,GI50,KM12,257 nM (active)
same,GI50,OVCAR-3,268 nM (active)
same,GI50,MOLT-4,170 nM (active)
same,GI50,Hs-578T,277 nM (active)
same,GI50,SR,24.2 nM (active)
same,GI50,OVCAR-5,375 nM (active)
same,GI50,ACHN,24.8 nM (active)
same,GI50,MCF7,122 nM (active)
same,GI50,HOP-62,484 nM (active)
same,GI50,MDA-N,219 nM (active)
same,GI50,CAKI-1,44.1 nM (active)
same,GI50,NCI-H226,282 nM (active)
same,GI50,Malme-3M,180 nM (active)
same,GI50,OVCAR-8,267 nM (active)
same,GI50,U-251,324 nM (active)
same,GI50,K562,116 nM (active)
same,GI50,SF-539,220 nM (active)
same,GI50,UO-31,159 nM (active)
same,GI50,SF-268,259 nM (active)
same,GI50,COLO 205,134 nM (active)
same,GI50,SK-OV-3,470 nM (active)
same,GI50,PC-3,215 nM (active)
same,GI50,OVCAR-4,188 nM (active)
same,GI50,SK-MEL-28,292 nM (active)
same,GI50,A549,29.4 nM (active)
same,GI50,SF-295,214 nM (active)
same,GI50,SK-MEL-5,110 nM (active)
same,GI50,SNB-75,388 nM (active)
same,GI50,RXF 393,47.4 nM (active)
same,GI50,HL-60,206 nM (active)
same,GI50,TK-10,112 nM (active)
same,GI50,NCI-H522,< 11.3 nM (active)
same,GI50,HCC 2998,90.8 nM (active)
same,GI50,NCI-H23,145 nM (active)
same,GI50,UACC-257,195 nM (active)
same,GI50,BT-549,193 nM (active)
same,GI50,T47D,158 nM (active)
same,GI50,SNB-19,406 nM (active)
same,GI50,HOP-92,96.4 nM (active)
same,GI50,SK-MEL-2,212 nM (active)
same,GI50,NCI/ADR-RES,447 nM (active)
same,GI50,SW-620,290 nM (active)
same,GI50,M14,337 nM (active)
